Results as given in US12686704B2, “Procoagulant peptides and use thereof” (RAMBAM MED-TECH LTD., priority 2021, dated 2026).

Legend:
[1] = tested on: Hemophilic mice (VIII-KO mice); assay: Mouse-tail bleeding time model in hemophilic mice; assay type: in vivo; settings: for bleeding time: 150, 225, 300, 375 μg/kg sub-cutis at the flank or topically on the tail, dose dependent, vs PBS control
Protocol: FIGS. 3A-3D include vertical bar graphs showing that modified heparanase procoagulant peptides of the invention decrease bleeding in hemophilic mice. Hemophilic mice (VIII-KO mice; C57BL/6 background, strain name B6;129S4-F8tm1Kaz/J) were studied. (3A) Peptides 16 or 16AC were injected subcutaneously at the flank in doses 150, 225, 300, 375 μg/kg. A mouse-tail bleeding time model was performed. The peptides were dissolved in phosphate-buffered saline (PBS). Control (0) group was injected with the vehicle phosphate buffered saline (PBS). (3D) is identical to (3A) with the exception that peptide 16 C […] and peptide 16A […] were also administered in the disclosed doses. In a similar study, the peptides were topically applied on the tail immediately following the incision of the tail at a rate of a drop every 5 seconds (3B). […] Mann-Whitney U test was used. Results represent mean±SD. *p<0.05.
Hemophilic mice (VIII-KO mice; C57BL/6 background, strain name B6;129S4-F8tm1Kaz/J) were studied. Peptides 16 or 16AC were injected sub-cutis at the flank in doses 150, 225, 300, 375 μg/kg. A mouse-tail bleeding time model was performed. The peptides were dissolved in phosphate-buffered saline (PBS). Control (0) group was injected with the vehicle phosphate buffered saline (PBS) (FIGS. 3A and 3D). In a similar study, the peptides were topically applied on the tail immediately following the incision of the tail at a rate of a drop every 5 seconds (FIG. 3B).

HUVEC cells = assay: Immunostaining of heparanase, TF, TFPI and TFPI-2 in HUVECs; assay type: cell-based, human; settings: 10 μg/ml; overnight incubation at 37° C.; vs control cells
Protocol: FIGS. 6A-6F include micrographs of immunohistochemistry assays showing that heparanase procoagulant peptides increase the level of heparanase in HUVECs. Ten (10) μg/ml of peptide 16 (6B-6C) or 10 μg/ml of peptide 16AC (6E-6F) was added to HUVEC cells and compared to control cells (6A-6D). After 30 min or overnight incubation at 37° C., the cells were fixed using formaldehyde 4%, permeabilized, blocked and reacted with specific heparanase antibody. […] Images were visualized through ×50 magnitude, with 0.82 MDC objective lens, captured with a Nikon E995 digital camera (Nikon, Tokyo, Japan), and processed with Adobe Photoshop software (Adobe Systems, San Jose, CA, USA).
FIGS. 7A-7F include micrographs of immunohistochemistry assays showing that heparanase procoagulant peptides increase the level of TF in HUVECs. Ten (10) μg/ml of peptide 16 (7B-7C) or 10 μg/ml of peptide 16AC (7E-7F) was added to HUVEC cells and compared to control cells (7A-7D). After 30 min or overnight incubation at 37° C., the cells were fixed using formaldehyde 4%, permeabilized, blocked and reacted with specific TF antibody. Images were visualized through ×50 magnitude, with 0.82 MDC objective lens, captured with a Nikon E995 digital camera (Nikon, Tokyo, Japan), and processed with Adobe Photoshop software (Adobe Systems, San Jose, CA, USA).
FIGS. 8A-8F include micrographs of immunohistochemistry assays showing that heparanase procoagulant peptides increase the level of TFPI in HUVECs. Ten (10) μg/ml of peptide 16 (8B-8C) or 10 μg/ml of peptide 16AC (8E-8F) was added to HUVEC cells and compared to control cells (8A-8D). After 30 min or overnight incubation at 37° C., the cells were fixed using formaldehyde 4%, permeabilized, blocked and reacted with specific TFPI-1 antibody. Images were visualized through ×50 magnitude, with 0.82 MDC objective lens, captured with a Nikon E995 digital camera (Nikon, Tokyo, Japan), and processed with Adobe Photoshop software (Adobe Systems, San Jose, CA, USA).
FIGS. 9A-9F include micrographs of immunohistochemistry assays showing that heparanase procoagulant peptides increase the level of TFPI-2 in HUVECs. Ten (10) μg/ml of peptide 16 (9B-9C) or 10 μg/ml of peptide 16AC (9E-9F) was added to HUVEC cells and compared to control cells (9A-9D). After 30 min or overnight incubation at 37° C., the cells were fixed using formaldehyde 4%, permeabilized, blocked and reacted with specific TFPI-2 antibody. Images were visualized through ×50 magnitude, with 0.82 MDC objective lens, captured with a Nikon E995 digital camera (Nikon, Tokyo, Japan), and processed with Adobe Photoshop software (Adobe Systems, San Jose, CA, USA).
Briefly, 10 μg/ml of peptide 16 or 10 μg/ml of peptide 16AC was added to HUVEC cells and compared to control cells (6A-6D). After 30 min or overnight incubation at 37° C., the cells were fixed using formaldehyde 4%, permeabilized, blocked and reacted with specific antibodies targeting heparanase, TF, TFPI-1, and TFPI-2 (FIGS. 6-9, respectively).

Substance | bleeding time [1] | TF level (staining) (HUVEC cells) | TFPI level (staining) (HUVEC cells) | TFPI-2 level (staining) (HUVEC cells) | heparanase level (staining) (HUVEC cells) | bleeding time reduction, comparison between peptides ([1]; subcutaneous 150-375 μg/kg, FIG. 3D)
GSKRRKLRVYLHCT [Peptide 16, peptide comprising the procoagulant domain of heparanase, non-modified] | significant decrease in bleeding time | strong staining after overnight incubation | strong staining after overnight incubation | strong staining after overnight incubation | strong staining after overnight incubation | –
acetyl-GSKRRKLRVYLHCT-amid (Ac-GSKRRKLRVYLHCT-NH2) [Peptide 16AC, peptide 16 comprising a C-terminal amid group and an N-terminal acetyl group] | significant decrease in bleeding time | strong staining after overnight incubation | strong staining after overnight incubation | strong staining after overnight incubation | strong staining after overnight incubation | improved bleeding reduction
